{"source": "patent US20060069132A1", "about": "“Azolecarboxamide herbicides” (priority 2004, published 2006)", "key": {"giant foxtail": {"tested_on": "giant foxtail", "assay": "Test C pre-/postemergence herbicide test", "type": "in vivo, Setaria faberi", "conditions": "preemergence", "outline": "(§1)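 Preemergence: seeds planted and treated with compound in non-phytotoxic solvent with surfactant; postemergence: plants at 2 to 18 cm (1- to 4-leaf stage) sprayed likewise. Kept in greenhouse 12 to 14 days, then visually rated against controls, 0 (no effect) to 100 (complete control).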"}, "morningglory": {"tested_on": "morningglory", "assay": "Test C pre-/postemergence herbicide test", "type": "in vivo, Ipomoea coccinea", "parameters": "key to Plant response rating, Morningglory: 0 = no effect, 100 = complete control", "conditions": "preemergence", "outline": "as §1"}, "lambsquarters": {"tested_on": "lambsquarters", "assay": "Test C pre-/postemergence herbicide test", "type": "in vivo, Chenopodium album", "conditions": "preemergence", "outline": "as §1"}, "[1]": {"tested_on": "common (oilseed) sunflower", "assay": "Test C pre-/postemergence herbicide test", "type": "in vivo, Helianthus annuus", "conditions": "preemergence", "outline": "as §1"}, "woolly cupgrass": {"tested_on": "woolly cupgrass", "assay": "Test C pre-/postemergence herbicide test", "type": "in vivo, Eriochloa villosa", "conditions": "preemergence", "outline": "as §1"}, "corn": {"tested_on": "corn", "assay": "Test C pre-/postemergence herbicide test", "type": "in vivo, Zea mays", "conditions": "preemergence", "outline": "as §1"}, "rice": {"tested_on": "rice", "assay": "Test C flooded paddy test", "type": "in vivo, Oryza sativa", "conditions": "for Plant response rating, Rice: 500 g ai/ha, visual rating after 12 to 14 days", "outline": "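Plants were grown to the 1- to 4-leaf stage (2–18 cm) and then treated postemergence, or grown to the 2-leaf stage for the flooded paddy test. They were held in a greenhouse for 12 to 14 days and then scored by eye against controls, where 0 is no effect and 100 is complete control.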"}, "Surinam grass": {"tested_on": "Surinam grass", "assay": "Test C pre-/postemergence herbicide test", "type": "in vivo, Urochloa decumbens", "conditions": "preemergence", "outline": "as §1"}, "ducksalad": {"tested_on": "ducksalad", "assay": "Test C flooded paddy test", "type": "in vivo, Heteranthera limosa", "conditions": "for Plant response rating, Ducksalad: 500 g ai/ha, visual rating after 12 to 14 days"}, "yellow nutsedge": {"tested_on": "yellow nutsedge", "assay": "Test C pre-/postemergence herbicide test", "type": "in vivo, Cyperus esculentus", "conditions": "preemergence", "outline": "as §1"}, "[2]": {"tested_on": "smallflower umbrella sedge", "assay": "Test C flooded paddy test", "type": "in vivo, Cyperus difformis", "conditions": "for Plant response rating, Sedge, Umbrella: 500 g ai/ha, visual rating after 12 to 14 days"}, "[3]": {"conditions": "500 g ai/ha, scale 0 to 100 (0 no effect, 100 complete control), visual, 12 to 14 days"}, "[4]": {"conditions": "125 g ai/ha, scale 0 to 100 (0 no effect, 100 complete control)"}, "[5]": {"conditions": "250 g ai/ha, scale of 0 to 100, 0 is no effect, 100 is complete control"}, "[6]": {"conditions": "scale 0 to 100 (0 no effect, 100 complete control)"}, "[7]": {"conditions": "125 g ai/ha, scale 0 (no effect) to 100 (complete control), visual, 12 to 14 days"}}, "data": [{"smiles": "CCC1=NN(C(C)(C)C)CC1C(=O)Nc1cc(C(=O)N(C)C)ccc1F", "note": "(racemic) [Compound 343]", "values": [{"measurement": "Plant response rating, Foxtail, Giant", "setting": "giant foxtail; 62 g ai/ha, scale 0 to 100", "result": 40}, {"measurement": "Plant response rating (0 = no effect, 100 = complete control), Foxtail, Giant", "setting": "giant foxtail; 125 g ai/ha", "result": 50}, {"measurement": "Plant response rating, Foxtail, Giant", "setting": "giant foxtail; 250 g ai/ha, scale 0-100", "result": 70}, {"measurement": "Plant response rating, Foxtail, Giant", "setting": "giant foxtail; [3]", "result": 80}, {"measurement": "Plant response rating, Morningglory", "setting": "morningglory; 62 g ai/ha, scale 0 to 100", "result": 5}, {"measurement": "Plant response rating (0 = no effect, 100 = complete control), Morningglory", "setting": "morningglory; 125 g ai/ha", "result": 60}, {"measurement": "Plant response rating, Morningglory", "setting": "morningglory; 250 g ai/ha, scale 0-100", "result": 100}, {"measurement": "Plant response rating, Morningglory", "setting": "morningglory; [3]", "result": 100}, {"measurement": "Plant response rating, Lambsquarters", "setting": "lambsquarters; 62 g ai/ha, scale 0 to 100", "result": 100}, {"measurement": "Plant response rating (0 = no effect, 100 = complete control), Lambsquarters", "setting": "lambsquarters; 125 g ai/ha", "result": 100}, {"measurement": "Plant response rating, Lambsquarters", "setting": "lambsquarters; 250 g ai/ha, scale 0-100", "result": 100}, {"measurement": "Plant response rating, Lambsquarters", "setting": "lambsquarters; [3]", "result": 100}, {"measurement": "Plant response rating, Sunflower", "setting": "[1]; 62 g ai/ha, scale 0 to 100", "result": 10}, {"measurement": "Plant response rating (0 = no effect, 100 = complete control), Sunflower", "setting": "[1]; 125 g ai/ha", "result": 75}, {"measurement": "Plant response rating, Sunflower", "setting": "[1]; 250 g ai/ha, scale 0-100", "result": 80}, {"measurement": "Plant response rating, Sunflower", "setting": "[1]; [3]", "result": 100}, {"measurement": "Plant response rating, Cupgrass, Woolly", "setting": "woolly cupgrass; 62 g ai/ha, scale 0 to 100", "result": 40}, {"measurement": "Plant response rating (0 = no effect, 100 = complete control), Cupgrass, Woolly", "setting": "woolly cupgrass; 125 g ai/ha", "result": 65}, {"measurement": "Plant response rating, Cupgrass, Woolly", "setting": "woolly cupgrass; 250 g ai/ha, scale 0-100", "result": 70}, {"measurement": "Plant response rating, Cupgrass, Woolly", "setting": "woolly cupgrass; [3]", "result": 100}, {"measurement": "Plant response rating, Corn", "setting": "corn; 62 g ai/ha, scale 0 to 100", "result": 40}, {"measurement": "Plant response rating (0 = no effect, 100 = complete control), Corn", "setting": "corn; 125 g ai/ha", "result": 70}, {"measurement": "Plant response rating, Corn", "setting": "corn; 250 g ai/ha, scale 0-100", "result": 70}, {"measurement": "Plant response rating, Corn", "setting": "corn; [3]", "result": 80}, {"measurement": "Rice plant response rating", "setting": "rice; 62 g ai/ha, scale 0 to 100", "result": 20}, {"measurement": "Rice plant response rating", "setting": "rice; [4]", "result": 50}, {"measurement": "Rice plant response rating", "setting": "rice; [5]", "result": 70}, {"measurement": "Plant response rating, Rice", "setting": "rice; [6]", "result": 80}, {"measurement": "Plant response rating, Surinam Grass", "setting": "Surinam grass; 62 g ai/ha, scale 0 to 100", "result": 60}, {"measurement": "Plant response rating (0 = no effect, 100 = complete control), Surinam Grass", "setting": "Surinam grass; 125 g ai/ha", "result": 85}, {"measurement": "Plant response rating, Surinam Grass", "setting": "Surinam grass; 250 g ai/ha, scale 0-100", "result": 100}, {"measurement": "Plant response rating, Surinam Grass", "setting": "Surinam grass; [3]", "result": 100}, {"measurement": "Ducksalad plant response rating", "setting": "ducksalad; 62 g ai/ha, scale 0 to 100", "result": 40}, {"measurement": "Ducksalad plant response rating", "setting": "ducksalad; [4]", "result": 80}, {"measurement": "Ducksalad plant response rating", "setting": "ducksalad; [5]", "result": 90}, {"measurement": "Plant response rating, Ducksalad", "setting": "ducksalad; [6]", "result": 90}, {"measurement": "Plant response rating, Nutsedge, Yellow", "setting": "yellow nutsedge; 62 g ai/ha, scale 0 to 100", "result": 5}, {"measurement": "Plant response rating (0 = no effect, 100 = complete control), Nutsedge, Yellow", "setting": "yellow nutsedge; 125 g ai/ha", "result": 10}, {"measurement": "Plant response rating, Nutsedge, Yellow", "setting": "yellow nutsedge; 250 g ai/ha, scale 0-100", "result": 60}, {"measurement": "Plant response rating, Nutsedge, Yellow", "setting": "yellow nutsedge; [3]", "result": 90}, {"measurement": "Sedge, Umbrella plant response rating", "setting": "[2]; 62 g ai/ha, scale 0 to 100", "result": 20}, {"measurement": "Sedge, Umbrella plant response rating", "setting": "[2]; [4]", "result": 40}, {"measurement": "Sedge, Umbrella plant response rating", "setting": "[2]; [5]", "result": 80}, {"measurement": "Plant response rating, Sedge, Umbrella", "setting": "[2]; [6]", "result": 90}]}, {"smiles": "CCNC(=O)c1cccc(NC(=O)c2cc(C3(C)CC3)nn2CC)c1", "note": "[Compound 306]", "values": [{"measurement": "Plant response rating, Foxtail, Giant", "setting": "giant foxtail; 62 g ai/ha, scale 0 to 100", "result": 5}, {"measurement": "Plant response rating, Foxtail, Giant", "setting": "giant foxtail; [7]", "result": 40}, {"measurement": "Plant response rating, Foxtail, Giant", "setting": "giant foxtail; 250 g ai/ha, scale 0-100", "result": 90}, {"measurement": "Plant response rating, Foxtail, Giant", "setting": "giant foxtail; [3]", "result": 100}, {"measurement": "Plant response rating, Morningglory", "setting": "morningglory; 62 g ai/ha, scale 0 to 100", "result": 5}, {"measurement": "Plant response rating, Morningglory", "setting": "morningglory; [7]", "result": 5}, {"measurement": "Plant response rating, Morningglory", "setting": "morningglory; 250 g ai/ha, scale 0-100", "result": 10}, {"measurement": "Plant response rating, Morningglory", "setting": "morningglory; [3]", "result": 20}, {"measurement": "Plant response rating, Lambsquarters", "setting": "lambsquarters; 62 g ai/ha, scale 0 to 100", "result": 100}, {"measurement": "Plant response rating, Lambsquarters", "setting": "lambsquarters; [7]", "result": 100}, {"measurement": "Plant response rating, Lambsquarters", "setting": "lambsquarters; 250 g ai/ha, scale 0-100", "result": 100}, {"measurement": "Plant response rating, Lambsquarters", "setting": "lambsquarters; [3]", "result": 100}, {"measurement": "Plant response rating, Sunflower", "setting": "[1]; 62 g ai/ha, scale 0 to 100", "result": 0}, {"measurement": "Plant response rating, Sunflower", "setting": "[1]; 250 g ai/ha, scale 0-100", "result": 0}, {"measurement": "Plant response rating, Sunflower", "setting": "[1]; [3]", "result": 0}, {"measurement": "Plant response rating, Cupgrass, Woolly", "setting": "woolly cupgrass; 62 g ai/ha, scale 0 to 100", "result": 5}, {"measurement": "Plant response rating, Cupgrass, Woolly", "setting": "woolly cupgrass; [7]", "result": 15}, {"measurement": "Plant response rating, Cupgrass, Woolly", "setting": "woolly cupgrass; 250 g ai/ha, scale 0-100", "result": 30}, {"measurement": "Plant response rating, Cupgrass, Woolly", "setting": "woolly cupgrass; [3]", "result": 50}, {"measurement": "Plant response rating, Corn", "setting": "corn; 62 g ai/ha, scale 0 to 100", "result": 5}, {"measurement": "Plant response rating, Corn", "setting": "corn; [7]", "result": 10}, {"measurement": "Plant response rating, Corn", "setting": "corn; 250 g ai/ha, scale 0-100", "result": 20}, {"measurement": "Plant response rating, Corn", "setting": "corn; [3]", "result": 50}, {"measurement": "Rice plant response rating", "setting": "rice; 62 g ai/ha, scale 0 to 100", "result": 30}, {"measurement": "Rice plant response rating", "setting": "rice; [4]", "result": 40}, {"measurement": "Rice plant response rating", "setting": "rice; [5]", "result": 55}, {"measurement": "Plant response rating, Rice", "setting": "rice; [6]", "result": 70}, {"measurement": "Plant response rating, Surinam Grass", "setting": "Surinam grass; 250 g ai/ha, scale 0-100", "result": 40}, {"measurement": "Plant response rating, Surinam Grass", "setting": "Surinam grass; [3]", "result": 95}, {"measurement": "Ducksalad plant response rating", "setting": "ducksalad; 62 g ai/ha, scale 0 to 100", "result": 50}, {"measurement": "Ducksalad plant response rating", "setting": "ducksalad; [4]", "result": 80}, {"measurement": "Ducksalad plant response rating", "setting": "ducksalad; [5]", "result": 80}, {"measurement": "Plant response rating, Ducksalad", "setting": "ducksalad; [6]", "result": 90}, {"measurement": "Plant response rating, Nutsedge, Yellow", "setting": "yellow nutsedge; 62 g ai/ha, scale 0 to 100", "result": 0}, {"measurement": "Plant response rating, Nutsedge, Yellow", "setting": "yellow nutsedge; [7]", "result": 0}, {"measurement": "Plant response rating, Nutsedge, Yellow", "setting": "yellow nutsedge; 250 g ai/ha, scale 0-100", "result": 10}, {"measurement": "Plant response rating, Nutsedge, Yellow", "setting": "yellow nutsedge; [3]", "result": 40}, {"measurement": "Sedge, Umbrella plant response rating", "setting": "[2]; 62 g ai/ha, scale 0 to 100", "result": 85}, {"measurement": "Sedge, Umbrella plant response rating", "setting": "[2]; [4]", "result": 90}, {"measurement": "Sedge, Umbrella plant response rating", "setting": "[2]; [5]", "result": 90}, {"measurement": "Plant response rating, Sedge, Umbrella", "setting": "[2]; [6]", "result": 90}]}]}
